Source: patent US20210238169A1, “PROCESS FOR PREPARING A COMPOUND OF FORMULA (XIII)” (PULMOCIDE LIMITED, priority 2014, published 2021)
≈ marks a conversion by molar mass, not a printed value. Like-named read-outs stand apart in the source and are kept apart here.

Columns and labels:
[1] = test system: BEAS2B cells; assay: Cell viability: resazurin assay; format: cell-based, human; details: n = 1-5
Procedure: (§1) BEAS2B cells were seeded in 384-well plates (100 μL; 3000/well/; BD Falcon, Catalogue No 353962) in RPMI-LHC8 (RPMI-1640 and LHC8 media combined in equal proportions) one day before experimentation. For cell-free control wells, RPMI-LHC8 (100 μL) was added. Test compounds (0.5 μL of a DMSO solution) were added to give a final DMSO concentration of 0.5% using an Integra VIAFLO 96 (Integra, Zizers, Switzerland). BEAS2B cells were incubated with each test compound for 1 day (37° C./5% CO2 in RPMI-LHC8). After addition of resazurin stock solution (5 μL, 0.04%) the plates were incubated for a further 4 hr (37° C./5% CO2). The fluorescence of each well at 545 nm (excitation) and 590 nm (emission) was determined using a multi-scanner (Clariostar: BMG Labtech). The percentage loss of cell viability was calculated for each well relative to vehicle (0.5% DMSO) treatment. Where appropriate, a CC50 value was calculated from the concentration-response curve generated from the concentration-response curve for each test compound.

[2] = test system: Aspergillus fumigatus (NCPF2010); assay: Resazurin-microtitre assay of planktonic fungal growth; format: cell-based
Procedure: This assay was conducted using a modified, published method (Monteiro et al., 2012). Spores of Aspergillus fumigatus (NCPF2010, Public Health England, Wiltshire) were cultured in Sabouraud dextrose agar for 3 days. A stock spore suspension was prepared from a Sabouraud dextrose agar culture by washing with PBS-tween (10 mL; PBS containing 0.05% Tween-20, 100 U/mL Penicillin and 100 U/mL Streptomycin). The spore count was assessed using a Neubauer haemocytometer and, using PBS, adjusted to 10^6 spores/mL. A working suspension of spores (10^4 spores/mL) was prepared in filter sterilised MOPS RPMI-1640 (50 mL; RPMI-1640 containing 2 mM L-glutamine, 2% glucose and 0.165 M MOPS, buffered to pH 7 with NaOH). Resazurin sodium salt (100 μL of 1% solution; Sigma-Aldrich, Dorset, UK) was added to the spore suspension and mixed well. The spore suspension-resazurin mixture (100 μL/well) was added to 384-well plates (Catalogue number 353962, BD Falcon, Oxford, UK). Simultaneously, test compounds (0.5 μL DMSO solution) were added to 100 μL of the spore-resazurin mixture in quadruplicate to provide a final DMSO solution of 0.5% using an Integra VIAFLO 96 (Intergra, Zizers, Switzerland). For non-spore control wells, MOPS-RPMI-resazurin solution (100 μL) was added instead of the spore-resazurin mixture. The plate was covered with a Breathe Easier membrane (Catalogue No Z763624, Sigma-Aldrich, Dorset, UK), and incubated (35° C., 5% CO2) until fluorescence in the inoculated wells was double that of the control wells (around 24 hr). The fluorescence of each well (545 nm (excitation)/590 nm (emission), gain 800, focal height 5.5 mm) was determined using a multi-scanner (Clariostar: BMG, Buckinghamshire, UK). The percentage inhibition for each well was calculated and the MIC50, MIC75 and MIC90 values were calculated from the concentration-response curve generated for each test compound.

[3] = test system: Aspergillus fumigatus isolates; assay: Broth microdilution assay of planktonic fungal growth (modified EUCAST); format: cell-based; details: read-out: MIC75
Procedure: This assay was conducted using a modified method published by EUCAST (Rodriguez-Tudela et al., 2008). Spores of Aspergillus fumigatus (NCPF2010, NCPF7010 (Methionine 220 mutation), NCPF7099 (Glycine G54 mutation) from Public Health England, Wiltshire; TR34/L98H mutants from St Louis Hospital, Paris, France) were cultured in Sabouraud dextrose agar for 3 days. A stock spore suspension was prepared from a Sabouraud dextrose agar culture by washing with PBS-tween (10 mL; PBS containing 0.05% Tween-20, 100 U/mL Penicillin and 100 U/mL Streptomycin). The spore count was assessed using a Neubauer haemocytometer and then adjusted to 10^6 spores/mL with PBS. A working suspension of spores (2×10^5 spores/mL) was prepared in filter sterilised, BSA MOPS RPMI-1640 (50 mL; RPMI-1640 containing 2 mM L-glutamine, 0.5% BSA, 2% glucose, 0.165 M MOPS, buffered to pH 7 with NaOH). For the assay, BSA MOPS RPMI-1640 (50 μL/well) was added throughout the 384-well plate (Catalogue number 353962, BD Falcon, Oxford, UK) first. Test compounds (0.5 μL DMSO solution) were then added in quadruplicate using an Integra VIAFLO 96 (Integra, Zizers, Switzerland), and mixed well using a plate mixer. Subsequently 50 μL of the working spore suspension prepared above was added to all wells except non-spore control wells. For non-spore control wells, BSA MOPS-RPMI solution (50 μL/well) was added instead. The plate was covered with a plastic lid, and incubated (35° C. with ambient air) for 48 hr. The OD of each well at 530 nm was determined using a multi-scanner (Clariostar: BMG, Buckinghamshire, UK). The percentage inhibition for each well was calculated and the MIC50, MIC75 and MIC90 values were calculated from the concentration-response curve generated for each test compound.

[4] = test system: Aspergillus fumigatus isolates; assay: as above; format: cell-based; details: isolate NCPF7100, broth microdilution, read-out: MIC75
[5] = test system: Aspergillus fumigatus; assay: Aspergillus fumigatus infection of BEAS2B bronchial epithelial cells (GM in supernatant); format: cell-based
Procedure: BEAS2B cells were seeded in 96-well plates (100 μL; 30,000 cells/well; Catalogue No 3596, Sigma Aldrich, Dorset, UK) in 10% FBS RPMI-1640 and were then incubated (37° C., 5% CO2) for one day before experimentation. Test compounds (0.5 μL DMSO solution) or vehicle (DMSO) were added to each well to give a final DMSO concentration of 0.5%. BEAS2B cells were incubated with test compounds for 1 hr (35° C., 5% CO2) before infection with Aspergillus fumigatus (20 μL; Public Health England) conidia suspension (0.5×10^5/ml in 10% FBS RPMI-1640). The plate was incubated for 24 hr (35° C., 5% CO2). Supernatant (50 μL) was collected and transferred to a PCR plate (Catalogue No L1402-9700, Starlab, Milton Keynes, UK), which was frozen (−20° C.) until use. After thawing, supernatant (5 μL) was diluted 1:20 by adding R7-PBS solution (95 μL; 1:4 R7 to PBS; Bio-Rad Laboratories, Redmond, Wash., USA). GM levels in these samples (50 μL) were measured using Platelia GM-EIA kits (Bio-Rad Laboratories, Redmond, Wash., USA). The percentage inhibition for each well was calculated and the IC50 value was calculated from the concentration-response curve generated for each test compound.

[6] = Cell viability: resazurin assay; format: cell-based, human; details: human, BEAS2B cells; n = 1-5
Procedure: as §1

Question: With `C[C@@H]1[C@H](O)[C@@H](C)/C=C/C=C/C=C/C=C/C=C/C=C/C=C/[C@H](O[C@@H]2O[C@H](C)[C@@H](O)[C@H](N)[C@@H]2O)C[C@@H]2O[C@](O)(C[C@@H](O)C[C@@H](O)[C@H](O)CC[C@@H](O)C[C@@H](O)CC(=O)O[C@H]1C)C[C@H](O)[C@H]2C(=O)O` [Amphotericin B] as the molecule, how does the CC50 [1] read?
Answer: 977 nM

Question: And the “Planktonic fungal growth MIC50” value [2]?
Answer: 0.0285 µM

Question: And the “Planktonic fungal growth MIC75” value [2]?
Answer: 0.0644 µM

Question: And the MIC ([3]; isolate L98H, broth microdilution)?
Answer: 0.209 µM (≈ 0.193 µg/mL)

Question: What about the MIC ([3]; isolate NCPF2010, broth microdilution) of the same molecule?
Answer: 0.382 µM (≈ 0.353 µg/mL)

Question: What about the MIC ([3]; isolate NCPF7099, broth microdilution) of the same molecule?
Answer: 0.365 µM (≈ 0.337 µg/mL)

Question: And the MIC [4]?
Answer: >1.08 µM

Question: Which results are given for `[2H]c1c([2H])c(NC(=O)c2ccc(N3CCN(c4ccc(OC[C@@H]5CO[C@@](Cn6cncn6)(c6ccc(F)cc6F)C5)c(C)c4)CC3)cc2)c([2H])c([2H])c1F` [Compound (I)•4[^2H], 4-(4-(4-(((3R,5R)-5-((1H-1,2,4-triazol-1-yl)methyl)-5-(2,4-difluorophenyl)tetrahydrofuran-3-yl)methoxy)-3-methylphenyl)piperazin-1-yl)-N-(4-fluorophenyl-2,3,5,6-d4)benzamide]?
Answer: MIC50 [5]: 0.00315 µM (≈ 0.00216 µg/mL); CC50 at 1 day [6]: > 14600 nM; MIC ([3]; Aspergillus fumigatus): 0.07 µM (≈ 0.0481 µg/mL); MIC ([3]; Aspergillus fumigatus, isolate NCPF2010, broth microdilution): 0.0147 µM (≈ 0.0101 µg/mL); MIC ([3]; Aspergillus fumigatus, isolate NCPF7099, broth microdilution): 0.0137 µM (≈ 0.00941 µg/mL); MIC ([4]; Aspergillus fumigatus): 0.0286 µM (≈ 0.0196 µg/mL)
